In patent US10611740B2, “Aryl dihydro-2H-benzo[b][1,4]oxazine sulfonamide and related compounds for use as agonists of RORγ and the treatment of disease” (Lycera Corporation, priority 2015, dated 2020):

Assays:
Gal4-RORγ-LBD = biological target: T1, Gal4-RORγ-LBD (Homo sapiens, UniProt P51449); test: Gal4-RORγ Luciferase Reporter Assay in HEK-293T Cells; format: cell-based; conditions: HEK-293 cells
T1 construct: expressed in transfected cells; host or cells: HEK-293 cells (pcDNA3.1neo plasmid)
T1 sequence (P51449 269-508 limits assumed): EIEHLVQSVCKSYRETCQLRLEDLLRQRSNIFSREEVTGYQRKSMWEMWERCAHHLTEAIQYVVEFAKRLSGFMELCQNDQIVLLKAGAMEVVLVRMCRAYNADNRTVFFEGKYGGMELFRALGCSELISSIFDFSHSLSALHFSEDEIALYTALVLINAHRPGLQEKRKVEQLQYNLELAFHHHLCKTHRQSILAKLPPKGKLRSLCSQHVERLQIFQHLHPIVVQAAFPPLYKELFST
Method: Assay procedures and results are described below.
In the following protocol, HEK-293 cells were transfected with a construct comprising the Gal4 DNA binding domain fused to the ligand binding domain of RORγ (Gal4-RORγ-LBD) in a pcDNA3.1neo plasmid, and also with a reporter construct comprising pGL4.31 Gal4-luciferase (Promega). Control cells were prepared similarly using empty pcDNA3.1neo and pGL4.31 vectors.
Trans-IT reagent (Mirus, 60 μL) at room temperature was added drop wise to OptiMEM (Invitrogen, 1.5 ml). This reagent mixture was mixed by inversion then incubated for 5 to 30 minutes at room temperature. It then was added to a solution of both expression vectors (5 μg each), mixed, and incubated at room temperature for about 20 minutes. HEK-293 cells were harvested from incubation flasks by removing the media, treating with TrypLE Express (Invitrogen), and incubating until the cells detached from the bottom of the flask (approximately 2-5 minutes). 10 Million cells were collected by centrifugation and re-suspended in 10 mL of Dulbecco's Modified Eagle Medium, High Glucose (DMEM, Invitrogen) containing 10% Fetal Bovine Serum and 100 IU each of penicillin and streptomycin. The re-suspended cells and the transfection mixture were added to a T75 flask, mixed and incubated overnight at 37° C. and 5% CO2.
The cells were harvested as described above, counted, and centrifuged to obtain the desired number of cells, then re-suspended in complete growth media at 0.75×10^6 cells/mL. The RORγ antagonist, ursolic acid, was added to the cells at a final concentration of 2 μM. Cells were plated at 20 μL of cell suspension/well (10,000-15,000 cells/well) in white tissue culture treated 384 well plates. Test compounds were dissolved at 10 mM in DMSO then diluted into complete growth medium to 5× the final intended test concentration. These drug stock solutions, 5 μL/well were added to the tissue culture plate. The final DMSO concentration was 0.2%. The plates were briefly centrifuged then incubated overnight at 37° C. and 5% CO2. To conduct the assay, the tissue culture plates were allowed to equilibrate to room temperature and One-Glo luciferase reagent (Promega, 25 μL/well) was added. The plates were briefly centrifuged then incubated at room temperature for 10 minutes. The luciferase intensity was read on an Envision plate reader (Perkin Elmer). […] The luciferase signal in the absence of ursolic acid or test compound is defined at 100. The Max Response is the upper plateau in the signal as determined by line-fit using a 4-parameter logistic model in PRISM (GraphPad).

RORγ-LBD = biological target: T2, RORγ-LBD (Homo sapiens, UniProt P51449); test: RORγ-Ligand Binding Domain (LBD) TR-FRET Assay; format: biochemical;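 for TR-FRET Assay Max Response: 665/615 nm ratio relative to signal without ursolic acid or compound set at 100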
T2 construct: made in house; host or cells: SF9 cells (baculovirus)
T2 sequence (P51449 269-508 limits assumed): T1 sequence (P51449 269-508 limits assumed)
Outline: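 Lysate from SF9 cells expressing His-RORγ-LBD is diluted to about 3 nM final in 50 mM Tris pH 7.0 assay buffer. A biotin-tagged SRC1 LXXLL peptide goes in at 200 nM final, plus ursolic acid at 2 μM final. Test compounds carry 1% DMSO final; signal read by TR-FRET.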

[1] = luciferase reporter, with 2 μM ursolic acid

SMILES | EC50 (Gal4-RORγ-LBD; 2 μM ursolic acid) | EC50 (RORγ-LBD) | Gal4-RORγ Assay Max Response (Gal4-RORγ-LBD; 2 μM ursolic acid) | TR-FRET Assay Max Response (RORγ-LBD) | also measured
COc1cc(S(=O)(=O)N2C[C@H](CNC(=O)C(C)(C)O)Oc3ccc(-c4cccc(C(F)(F)F)n4)cc32)ccc1F [Compound 30T, (S)-N-((4-((4-fluoro-3-methoxyphenyl)sulfonyl)-6-(6-(trifluoromethyl)pyridin-2-yl)-3,4-dihydro-2H-benzo[b][1,4]oxazin-2-yl)methyl)-2-hydroxy-2-methylpropanamide] |  |  |  |  | EC50 (Gal4-RORγ-LBD; [1]): < 500 nM; Gal4-RORγ Assay Max Response (Gal4-RORγ-LBD; [1]): * (The symbol “*” indicates a value in the range of 25 to 90)
Cc1cc(F)cc(-c2ccc3c(c2)N(S(=O)(=O)c2cccc(C(F)(F)F)c2)C[C@H](CC2(C(=O)O)CCOCC2)O3)c1 [Compound 78Q, (S)-4-((6-(3-fluoro-5-methyl-phenyl)-4-((3-(trifluoromethyl)-phenyl)sulfonyl)-3,4-dihydro-2H-benzo[b][1,4]oxazin-2-yl)methyl)tetrahydro-2H-pyran-4-carboxylic acid] | < 500 nM |  | ** (The symbol “**” indicates a value in the range of greater than 90 to 150) |  | 
O=C(O)C1(C[C@H]2CN(S(=O)(=O)c3cccc(C(F)(F)F)c3)c3cc(-c4cc(F)cc(OC(F)F)c4F)ccc3O2)CCOCC1 [Compound 78V, (S)-4-((6-(3-(difluoromethoxy)-2,5-difluorophenyl)-4-((3-(trifluoromethyl)phenyl)sulfonyl)-3,4-dihydro-2H-benzo[b][1,4]oxazin-2-yl)methyl)tetrahydro-2H-pyran-4-carboxylic acid] | < 500 nM |  | ** (The symbol “**” indicates a value in the range of greater than 90 to 150) |  | 
O=C(O)C1(C[C@H]2CN(S(=O)(=O)c3cccc(C(F)F)c3)c3cc(-c4cc(F)cc(OC(F)F)c4)ccc3O2)COC1 [Compound 51J, (S)-3-((6-(3-(difluoromethoxy)-5-fluorophenyl)-4-((3-(difluoro-methyl)phenyl)sulfonyl)-3,4-dihydro-2H-benzo[b][1,4]oxazin-2-yl)methyl)oxetane-3-carboxylic acid] | < 500 nM |  | ** (The symbol “**” indicates a value in the range of greater than 90 to 150) |  | 
O=C(O)C1(C[C@H]2CN(S(=O)(=O)c3cccc(C(F)F)c3)c3cc(-c4cc(F)ccc4F)ccc3O2)COC1 [Compound 51H, (S)-3-((4-((3-(difluoromethyl)-phenyl)sulfonyl)-6-(2,5-difluorophenyl)-3,4-dihydro-2H-benzo[b][1,4]oxazin-2-yl)methyl)oxetane-3-carboxylic acid] | 500 to 5000 nM |  | ** (The symbol “**” indicates a value in the range of greater than 90 to 150) |  | 
CC(C)c1cccc(S(=O)(=O)N2C[C@H](CC(C)(C)C(=O)O)Oc3ccc(-c4cc(F)ccc4F)cc32)c1 [Compound 32M, (S)-3-(6-(2,5-difluorophenyl)-4-((3-isopropylphenyl)sulfonyl)-3,4-dihydro-2H-benzo[b][1,4]oxazin-2-yl)-2,2-dimethylpropanoic acid] |  |  |  |  | EC50 (Gal4-RORγ-LBD; [1]): 500 to 5000 nM; Gal4-RORγ Assay Max Response (Gal4-RORγ-LBD; [1]): ** (The symbol “**” indicates a value in the range of greater than 90 to 150)
O=C(O)CC[C@H]1CN(S(=O)(=O)c2cccc(C(F)(F)F)c2)c2cc(-c3cc(F)cc(OC(F)F)c3)cc(F)c2O1 [Compound 22M, (S)-3-(6-(3-(difluoromethoxy)-5-fluorophenyl)-8-fluoro-4-((3-(trifluoromethyl)phenyl)sulfonyl)-3,4-dihydro-2H-benzo[b][1,4]-oxazin-2-yl)propanoic acid] |  | < 500 nM |  | *** (The symbol “***” indicates a value in the range of greater than 150 to 200) | 
C[C@H](C[C@H]1CN(S(=O)(=O)c2cccc(C(F)(F)F)c2)c2cc(-c3cc(F)cc(F)c3)ccc2O1)C(=O)O [Compound 46J, (R)-3-((S)-6-(3,5-difluorophenyl)-4-((3-(trifluoromethyl)phenyl)-sulfonyl)-3,4-dihydro-2H-benzo[b][1,4]oxazin-2-yl)-2-methylpropanoic acid] |  | < 500 nM |  | *** (The symbol “***” indicates a value in the range of greater than 150 to 200) | 

Continued, in another order:

EC50 (Gal4-RORγ-LBD; 2 μM ursolic acid) | EC50 (RORγ-LBD) | SMILES | Gal4-RORγ Assay Max Response (Gal4-RORγ-LBD; 2 μM ursolic acid) | TR-FRET Assay Max Response (RORγ-LBD) | also measured
500 to 5000 nM |  | CC(C)(O[C@@H]1Cc2ccc(-c3cc(F)cc(OC(F)F)c3)cc2N(S(=O)(=O)c2cccc(C(F)(F)F)c2)C1)C(=O)O [Compound 83D, (R)-2-((7-(3-(difluoromethoxy)-5-fluorophenyl)-1-((3-(trifluoromethyl)phenyl)sulfonyl)-1,2,3,4-tetrahydroquinolin-3-yl)oxy)-2-methylpropanoic acid] | ** (The symbol “**” indicates a value in the range of greater than 90 to 150) |  | 
500 to 5000 nM |  | O=C(O)[C@@]1(C[C@H]2CN(S(=O)(=O)c3cccc(C(F)(F)F)c3)c3cc(-c4cc(F)cc(OC(F)F)c4)ccc3O2)C[C@@H](O)[C@@H](O)C1 [Compound 65, (1r,3R,4S)-1-(((S)-6-(3-(difluoromethoxy)-5-fluorophenyl)-4-((3-(trifluoromethyl)phenyl)sulfonyl)-3,4-dihydro-2H-benzo[b][1,4]oxazin-2-yl)methyl)-3,4-dihydroxycyclopentane-1-carboxylic acid] | ** (The symbol “**” indicates a value in the range of greater than 90 to 150) |  | 
 | < 500 nM | O=C(O)[C@H]1C[C@@H]([C@H]2CN(S(=O)(=O)c3cccc(C(F)(F)F)c3)c3cc(-c4cc(F)cc(OC(F)F)c4)ccc3O2)C1 [Compound 60J, (1R,3s)-3-((S)-6-(3-(difluoro-methoxy)-5-fluorophenyl)-4-((3-(trifluoromethyl)phenyl)-sulfonyl)-3,4-dihydro-2H-benzo[b][1,4]-oxazin-2-yl)cyclobutane-1-carboxylic acid] |  | *** (The symbol “***” indicates a value in the range of greater than 150 to 200) | 
 | < 500 nM | C[C@@H](C[C@H]1CN(S(=O)(=O)c2cccc(C(F)(F)F)c2)c2cc(-c3cc(F)cc(OC(F)F)c3)ccc2O1)C(=O)O [Compound 46P, (S)-3-((S)-6-(3-(difluoro-methoxy)-5-fluorophenyl)-4-((3-(trifluoromethyl)phenyl)sulfonyl)-3,4-dihydro-2H-benzo[b][1,4]-oxazin-2-yl)-2-methylpropanoic acid] |  | *** (The symbol “***” indicates a value in the range of greater than 150 to 200) | 
 | < 500 nM | C[C@H](C[C@H]1CN(S(=O)(=O)c2cccc(C(F)(F)F)c2)c2cc(-c3cc(Cl)cc(OC(F)F)c3)ccc2O1)C(=O)O [Compound 46Q, (R)-3-((S)-6-(3-chloro-5-(difluoromethoxy)phenyl)-4-((3-(trifluoromethyl)phenyl)sulfonyl)-3,4-dihydro-2H-benzo[b][1,4]-oxazin-2-yl)-2-methylpropanoic acid] |  | *** (The symbol “***” indicates a value in the range of greater than 150 to 200) | 
 | < 500 nM | C[C@@H](C[C@H]1CN(S(=O)(=O)c2cccc(C(F)(F)F)c2)c2cc(-c3cc(F)cc(F)c3)ccc2O1)C(=O)O [Compound 46S, (S)-3-((S)-6-(3,5-difluorophenyl)-4-((3-(trifluoromethyl)phenyl)-sulfonyl)-3,4-dihydro-2H-benzo[b][1,4]oxazin-2-yl)-2-methylpropanoic acid] |  | *** (The symbol “***” indicates a value in the range of greater than 150 to 200) | 
 | < 500 nM | C[C@@H](CC(=O)O)[C@H]1CN(S(=O)(=O)c2cccc(C(F)(F)F)c2)c2cc(-c3cc(F)cc(OC(F)F)c3)ccc2O1 [Compound 80A, (S)-3-((S)-6-(3-(difluoro-methoxy)-5-fluorophenyl)-4-((3-(trifluoromethyl)phenyl)sulfonyl)-3,4-dihydro-2H-benzo[b][1,4]-oxazin-2-yl)butanoic acid] |  | *** (The symbol “***” indicates a value in the range of greater than 150 to 200) | 
